Experiments:
Type in all cases: cell-based, human
TNF-α = TNF-α time profile in monocytes, RT-qPCR; settings: 50 µg/mL, LPS (100 ng/mL) activated
Protocol: (§1) For closer characterization, we selected dendrimer 1 due to its smaller size and the presence of a cysteine residue that could be used for labelling. […] Furthermore, dendrimer 1 induced the release of IL‐1Ra both with and without LPS activation, but in the latter case the effect was detected only after 18 h incubation (Figure S5e/f).
(§2) Enriched monocytes after Percoll centrifugation (4×10^6 cells/3 mL well; 6-well plates) were preincubated for 1 h with or without compounds in RPMI-1640 medium supplemented with 10% heat-inactivated FBS, 50 μg/mL streptomycin, 50 U/mL penicillin, 2 mM L-glutamine, and then incubated for the indicated duration. After the incubation cells were collected, total RNA was extracted, reverse transcribed and analyzed by SYBR Green Master Mix. As a housekeeping gene was used Actin 5'-CAC TGG GGG CTA CTG GAC-3', 3'-AACATGGTGTTGGCAGAAACT-5', IL-1Ra 5'-TTCCTGTTCCATTCAGAGACG -3', 3'-CTTCTGGTTAACATCCCAGATTC -5'.
Figure S5. Dendrimer 1 affected mRNA levels in both LPS -activated and resting monocytes.
Monocytes 4 ×10^6 cells/3 mL in 6 well plates were incubated for indicated time with 50 µg/mL of 1 or without any treatment (NT) (a, c, e); or preincubated for 1 h with 100 ng/mL of LPS, and then with 50 µg/mL of 1 (b, d, f) or without any treatment (NT). […]

lymphocytes = assay: IL-1Ra in supernatants of lymphocytes (rest of leukocytes after Percoll), ELISA; settings: rest of leukocytes after Percoll gradient, 50-25 µg/mL, 48 h, n = 2
Protocol: Similar donor dependent responses of cytokine release to GA have been reported for IL‐27.[38]
Figure S3. Cytokine level of IL-1Ra in supernatants of monocytes for active dendrimers and analogues evaluated by ELISA assay on primary human monocytes of healthy donors. 5×10^4 cells/200 µL in 96 well plates, were incubated with dendrimers or GA as a control for 48 h in presence or absence of LPS (100 ng/mL), in a range of concentrations (100-12.5 µg/mL) (mean ± SD, n = 3 different experiments).
Figure S4. Cytokine level of IL-1Ra in supernatants of monocytes enriched fraction (a) and the rest of leukocytes (b) for active dendrimers and analogues evaluated by ELISA assay.
Monocytes fraction was separated from whole PBMC by Percoll density gradient centrifugation. 5×10^4 cells/200 µL in 96 well plates were incubated with dendrimers or GA (50-25 µg/mL) as a control for 48 h (mean ± SD, n = 2 different experiments). […]

IL-1Ra = IL-1Ra time profile / mRNA level in monocytes, RT-qPCR; settings: 50 µg/mL, with and without LPS, without LPS detected only after 18 h
Protocol: Figure 2 Cytokine level of IL‐1Ra in supernatants of primary human monocytes of healthy donors treated with peptide dendrimers, evaluated by ELISA (bars, left vertical axis) and mRNA levels (▴, right vertical axis). […] For mRNA levels evaluation, 2×10^6 cells 3 mL^−1 in 6 well plates were incubated with 50 μg mL^−1 dendrimer or GA for 18 h.
To assess the activity requirements for 1 and 4, we performed a structure–activity relationship (SAR) study on the level of induced IL‐1Ra release measured by immunoassay, which we verified in selected cases at the mRNA level by RT‐qPCR (Figure 2).
as §1
as §2, with “As a housekeeping gene was used Actin 5'-CAC TGG GGG CTA CTG GAC-3', 3'-AACATGGTGTTGGCAGAAACT-5', IL-1Ra 5'-TTCCTGTTCCATTCAGAGACG -3', 3'-CTTCTGGTTAACATCCCAGATTC -5'.” left out

PBMC = settings: 100-12.5 µg/mL, 24 h, AlamarBlue further 12 h, fluorescence, normalized to untreated, n = 3
Description: To assess the activity requirements for 1 and 4, we performed a structure–activity relationship (SAR) study on the level of induced IL‐1Ra release measured by immunoassay, which we verified in selected cases at the mRNA level by RT‐qPCR (Figure 2). […]
and centrifuged at the same conditions. PBMC collected from the interface were washed 3 times with supplemented RPMI.
Monocytes purification using magnetic beads labelling Isolation KIT II
Monocytes were purified from whole PBMC by negative selection, all procedures were carried out according to manufacturer protocol. Briefly, the non-monocytes were labeled with a cocktail of biotin-conjugated monoclonal antibodies as a primary labeling reagent. Then as a secondary labeling reagent were used anti-biotin microbeads. The mixture was run through the MACS column (MACS, Miltenyi Biotech) in the magnetic field of a MACS Separator (MACS, Miltenyi Biotech). […]
supplemented with 10% heat-inactivated FBS, 50 μg/mL streptomycin, 50 U/mL penicillin, 2 mM L-glutamine, and 5 μg/mL. […] Then, plates were measured on a Tecan Infinite M1000 Pro plate reader at λex= 560 nm and λem= 590 nm and value normalized to the […]
Figure S1. […] After incubation 50 µl of 50% AlamarBlue was added in supplemented medium for additional 12 h, then fluorescence was measured according to manufacture protocol. […]

(KA)8(KAK)4(KEKA)2KAKEAYCA-NH2 [compound 1, G3 peptide dendrimer]
release of TNF-α (TNF-α): inhibited | induction of IL-1Ra in lymphocytes (lymphocytes): did not occur | release of IL-1Ra, time profile (IL-1Ra): induced | viability of PBMC / cellular toxicity (PBMC): did not show measurable cellular toxicity

Source: paper PMC9298260, “An Immunomodulatory Peptide Dendrimer Inspired from Glatiramer Acetate” (Angewandte Chemie (International Ed. in English), 2021)
